This data set relates to patients with solid cancer. In words: Phase 1 clinical trial of JPH203 in patients with solid cancer (safety/DLT and efficacy). It counts as in vivo, human. The conditions noted are these: for Effective case: single dose then once daily for 7 consecutive days per cycle; for DLT (dose limiting toxicity): between single administration and test at end of cycle 1. The method, then:
The injection is a lyophilized formulation and contains 50 mg of JPH203 and 1200 mg of sulfobutyl ether-β-cyclodextrin in one vial.
Phase 1 Clinical Trial of JPH203 in Patients with Solid Cancer
This clinical trial involved patients with solid cancer. The object of this clinical trial was to evaluate the safety (dose limiting toxicity: DLT) and efficacy of JPH203.
The patient's primary inclusion criteria and exclusion criteria are as follows:
• Patients in advanced stage, who have been confirmed to have solid cancer and who are refractory or intolerant to standard therapy • Patients whose biopsies or pre-existing tissues are available for LAT1 antibody staining • Patients who can be expected to survive 90 days or more from the date of enrollment Exclusion Criteria • Patients with serious or clinically problematic anamnesis or complications • Patients who received chemotherapy, radiation therapy, immunotherapy, or other therapies aimed at tumor shrinkage effect within 4 weeks prior to study drug administration
The dosing schedule is as follows:
On Day 1, a predetermined dosage was administered in a single dose. The dosage was 12 mg/m^2 (4 cases), 25 mg/m^2 (3 cases), 40 mg/m^2 (3 cases), 60 mg/m^2 (6 cases), or 85 mg/m^2 (1 case). One case of the 12 mg/m^2 dosage group was discontinued after only a single dose due to disease progression.
Cycle 1 was started 8 days or more after the single administration, and the injection was administered once daily for 7 consecutive days. Tests including CT were performed on days 28 to 31 from the start date of cycle 1 administration.
Within 28 days of the test day of the previous cycle, the next cycle was started and the injection was administered once daily for 7 consecutive days. Tests were performed on days 28 to 31 from the start date of administration.
DLT was the following symptoms occurring between the single administration and the test at the end of cycle 1 (from the start of cycle 1 to day 28) and for which the investigator (subinvestigator) determined that the relationship with the study drug could not be denied (“related,” “probably related,” “possibly related,” or “unlikely related”). However, the final determination of DLT was made in consultation between the investigator and the sponsor. If necessary, advice from the Data and Safety Monitoring Board was sought upon determining DLT. • 1) Non-hematologic toxicity of grade 3 or more for which the investigator (subinvestigator) determines that it is difficult to continue the administration of the study drug (except for acneform rash, maculo-papular rash, or urticaria of grade 3, and nausea, vomiting, inappetence, diarrhea, constipation, or fatigue that recovers to grade 1 by symptomatic therapy within 7 days after the occurrence) • 2) Hematotoxicity of grade 4 or more or thrombocytopenia of grade 3 or more requiring blood transfusion • 3) Febrile neutropenia
It should be noted that PD (progression) is when the sum of diameters of the target lesion is increased by 20% or more and the absolute value of sum diameters is increased by 5 mm or more compared to the smallest sum diameters measured at or after the baseline.

Where “and” joins values, the source holds several entries; their conditions need not be identical. Identical values can stand only once.

As for `Nc1cc(COc2c(Cl)cc(C[C@H](N)C(=O)O)cc2Cl)c2oc(-c3ccccc3)nc2c1` [JPH203, O-(5-amino-2-phenylbenzoxazol-7-yl)methyl-3,5-dichloro-L-tyrosine], the “cases of no change in tumor size (stable: SD)” value (12 mg/m^2 dosage group) is 1 case, the “cases of no change in tumor size (stable: SD)” value (25 mg/m^2 dosage group) turned out to be 1 case, the “cases of no change in tumor size (stable: SD)” value (40 mg/m^2 dosage group) amounted to 1 case and the “cases of no change in tumor size (stable: SD)” value (60 mg/m^2 dosage group) came to 1 case. Moreover, the “cases of tumor size reduction of 30% or more (partial response: PR)” value (12 mg/m^2 dosage group) was “One”. The “AST/ALT increase of grade 3 (DLT)” value runs as follows: (60 mg/m^2 dosage group) “observed”; (85 mg/m^2 dosage group) “observed”. Further, the Effective case was 2/3 (dosage 12 mg/m^2, injection); 1/3 (dosage 25 mg/m^2, injection); 1/3 (dosage 40 mg/m^2, injection); 1/6 (dosage 60 mg/m^2, injection); 0/1 (dosage 85 mg/m^2, injection). Further, the “DLT (dose limiting toxicity)” value is listed as “No” (dosage 12 mg/m^2); “No” (dosage 25 mg/m^2); “No” (dosage 40 mg/m^2); “Yes” (dosage 60 mg/m^2); “Yes” (dosage 85 mg/m^2). Further, under “lymph node metastatic lesions, all dosage groups”, the “cases with significant shrinkage effect in lymph node metastatic lesions” value is 3 out of 7. The “survival prolonging effects by cancer type (Swimmer plot, FIG. 2)” value (months of survival for each subject) is “exhibits survival prolonging effects on bile duct cancer, colorectal cancer, and pancreatic cancer”. Further, the “shrinkage of lymph node metastatic lesions (individual cases)” value (the 3 responding cases out of 7) was 55% and 69.4% and 80%. Moreover, the “tumor shrinkage effects by cancer type (Waterfall plot, FIG. 1)” value (tumor shrinkage ratio for each subject) was “exhibits tumor shrinkage effects on bile duct cancer, colorectal cancer, esophageal cancer, and breast cancer”.

These data come from patent US12458628B2, “Cancer therapeutic” (J-Pharma Co., Ltd., priority 2017, dated 2025).
